# Measured values reported in patent US20150238441A1, “Modulation of Branched Amino Acid Concentrations to Treat Metabolic Diseases” (UNIVERSITY OF ROCHESTER, priority 2012, published 2015).
# Experiments:
# [1] = tested on: C57BL/6 mice; assay: Plasma metabolite levels in mice after a single 1 mg/kg oral gavage dose of NTBC (GC/MS and LC/MS/MS); format: in vivo; details: single aqueous 1 mg/kg dose by oral gavage, plasma 6 h following dosing, male C57BL/6 mice
# Description: For example, six male C57BL/6 mice (20-25 gm, 8-9 weeks age) were administered a single aqueous 1 mg/kg dose of NTBC by oral gavage. Plasma samples were taken 6 h following dosing. […] We conclude that NTBC can be used to reduce plasma BCAA levels in mice. It should be noted that an early study reported that plasma BCAA levels were unaffected after dosing rats with 10 mg/kg NTBC for 11 weeks (Lock et al., 1996).
# The dosing solutions were prepared the day of study dosing, approximately one hour prior to dosing. Compound 1 is nitisinone (also referred to herein as “NTBC”).
# 54 C56BL/6 mice were housed for at least 3 days prior to dosing and were fully acclimated at study start. All mice were ad libitum fed throughout the study. Water was given ad libitum throughout the holding and study periods. Body weight was measured prior to dosing. Dosing for Group 2 and 3 occurred once on the day of study.
# Blood collection (approximately 600 μL) was into pre-chilled (0-4° C.) K3-EDTA containing polypropylene blood collection tubes. After blood collection, blood samples were maintained chilled (2-6° C.) and centrifuged within 30 minutes. […]
# Samples were extracted and split into equal parts for analysis on GC/MS and LC/MS/MS platforms. Proprietary software was used to match ions to a library of standards for metabolite identification and for metabolite quantitation by peak area integration.
# [2] = tested on: patients; details: patients taking the drug; cited from earlier work
SMILES,"reduction of plasma levels of valine, isoleucine and leucine (BCAAs) [1]",patients who suffer gastrointestinal side effects [2]
"O=C1CCCC(=O)C1C(=O)c1ccc(C(F)(F)F)cc1[N+](=O)[O-] [Compound 1, nitisinone]",greater than 25%,–
CN(C)C(=N)N=C(N)N [metformin],–,More than 60%
